Consider 39 substances from patent US11214803B2, “Modulators of YAP1 expression” (Ionis Pharmaceuticals, Inc., priority 2019, dated 2022).

Strand notation (5' to 3'): a small letter for the sugar, then the base; units joined by * are phosphorothioate-linked, units joined directly phosphodiester-linked; [ ] holds rarer units or linkages, { } end groups; capitals alone tell only the bases. e = 2'-O-(2-methoxyethyl) (MOE); k = constrained ethyl (cEt); [5mC] = 5-methylcytosine; d = 2'-deoxy (DNA); m = 2'-O-methyl

One series concerns Yap1 mRNA. Nature of the series: Antisense inhibition of human Yap1 in SNU-449 cells by modified oligonucleotides, single dose (Example 5, RTS36584). The class given is cell-based. Particulars: Table 39; SNU-449 cells, 10,000 cells per well, free uptake, 2,000 nM oligonucleotide, approx. 48 hours; RTS36584; normalized to RIBOGREEN; Yap1 mRNA relative to untreated control. The gist of the method:
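Values are % of untreated control: Yap1 mRNA by quantitative RT-PCR (RTS36584), normalized to RIBOGREEN total RNA. Oligonucleotides were dosed at 2,000 nM, free uptake, in SNU-449 cells, with roughly 48 h exposure before RNA isolation.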
On to “1095398 (antisense k[5mC]*dT*dG*dA*dG*dG*dT*dA*dT*dA*dA*k[5mC]*eT*kG*eG*kG) [Compound 1095398]”, for which the “YAP1 (% UTC)” value is 38 % UTC.

For “1198405 (k[5mC]*dT*dT*dT*dG*dG*dA*dA*dG*dA*dT*k[5mC]*eT*kG*eA*kA; antisense) [Compound 1198405]”, the “YAP1 (% UTC)” value amounted to 36 % UTC.

Still in this series, the particulars now being: Table 40 (separate experiment); SNU-449 cells, 10,000 cells per well, free uptake, 2,000 nM oligonucleotide, approx. 48 hours; RTS36584; normalized to RIBOGREEN; Yap1 mRNA relative to untreated control.
As for “1198760 (kT*eT*kA*dG*dG*dA*dT*dG*d[5mC]*dA*dT*dG*eG*eT*kT*kT; antisense) [Compound 1198760]”, the “YAP1 (% UTC)” value is reported as 91 % UTC.

Take “1198721 (kA*eT*kG*dG*dA*dA*dA*dT*dT*dG*dT*d[5mC]*eT*e[5mC]*kA*kT; antisense) [Compound 1198721]”: the “YAP1 (% UTC)” value amounted to 48 % UTC. Take “1198751 (kT*eT*kG*dG*dA*dA*dG*dA*dT*d[5mC]*dT*dG*eA*eA*kA*k[5mC]; antisense) [Compound 1198751]”: the “YAP1 (% UTC)” value amounted to 76 % UTC. As for “1198440 (kA*dA*dG*dT*dG*dT*dA*dT*dG*dT*d[5mC]*kA*eG*kA*eA*kG) [Compound 1198440]”, the “YAP1 (% UTC)” value came out at 5 % UTC.

For the substance “1198802 (antisense kA*eG*kA*d[5mC]*dT*dA*dA*dG*dT*dA*dA*dG*eG*eT*kT*kT) [Compound 1198802]”, the “YAP1 (% UTC)” value was found to be 83 % UTC. For “1198723 (kA*eG*kT*dA*dT*dG*dT*dG*dG*d[5mC]*dA*dA*eT*eA*kA*kT; antisense) [Compound 1198723]”, the “YAP1 (% UTC)” value is on record as 57 % UTC.

The same series, now with this note: Table 41; SNU-449 cells, 10,000 cells per well, free uptake, 2,000 nM modified oligonucleotide, approximately 48 hours; RTS36584; normalized to RIBOGREEN; Yap1 mRNA relative to untreated control cells.
For the substance “1198788 (antisense kA*eA*kG*dT*dG*dT*dA*dT*dG*dT*d[5mC]*dA*eG*eA*kA*kG) [Compound 1198788]”, the “YAP1 (% UTC)” value amounted to 17 % UTC. On to “1198676 (antisense kT*k[5mC]*dA*dG*dA*dT*dT*dT*dA*dG*dG*dA*kT*eG*k[5mC]*eA) [Compound 1198676]”, for which the “YAP1 (% UTC)” value is given as 52 % UTC. On the same count and under the same terms, in the case of “1198736 (kT*eG*kA*dG*dG*dT*dA*dT*dA*dA*d[5mC]*dT*eG*eG*kG*k[5mC]; antisense) [Compound 1198736]” it was 20 % UTC.

In the case of “1198793 (antisense k[5mC]*eT*kT*dT*dA*dA*dA*dG*dT*dG*dT*dA*eT*eG*kT*k[5mC]) [Compound 1198793]”, the “YAP1 (% UTC)” value is 34 % UTC. Regarding “1198787 (antisense kA*eG*kT*dG*dT*dA*dT*dG*dT*d[5mC]*dA*dG*eA*eA*kG*kA) [Compound 1198787]”, the “YAP1 (% UTC)” value is given as 9 % UTC.

Turning to “1198790 (antisense kT*eA*kA*dA*dG*dT*dG*dT*dA*dT*dG*dT*e[5mC]*eA*kG*kA) [Compound 1198790]”, the “YAP1 (% UTC)” value was 27 % UTC.

Still in this series, the particulars now being: Table 42 (separate experiment); SNU-449 cells, 10,000 cells per well, free uptake, 2,000 nM modified oligonucleotide, approximately 48 hours; RTS36584; normalized to RIBOGREEN; Yap1 mRNA relative to untreated control cells.
As to “1198232 (kT*kT*dT*dG*dG*dA*dA*dG*dA*dT*d[5mC]*eT*eG*eA*kA*kA) [Compound 1198232]”, the “YAP1 (% UTC)” value worked out at 92 % UTC.

Staying with this series, now noted: Table 43 experiment; SNU-449 cells, 10,000 cells per well, free uptake, 2,000 nM, approximately 48 hours; RTS36584; Yap1 mRNA normalized to RIBOGREEN, relative to untreated control cells.
For “1198253 (kA*d[5mC]*dT*d[5mC]*dT*dT*dA*dT*dA*dT*dG*eG*eT*eT*kT*kT; antisense) [Compound 1198253]”, the “YAP1 (% UTC)” value is 50 % UTC.

The same series, now with this note: Table 45; Yap1 mRNA as percent of untreated control, SNU-449 cells, single dose.
In the case of “1198914 (kT*kT*dT*dT*dA*d[5mC]*dA*dT*dT*dA*dG*kG*dA*kA*d[5mC]*kA; antisense) [Compound 1198914]”, the “YAP1 (% UTC)” value is recorded as 68 % UTC. Take “1198921 (kT*kT*dA*dA*dG*d[5mC]*dA*d[5mC]*dT*dT*dT*kT*dA*k[5mC]*dA*kT; antisense) [Compound 1198921]”: the “YAP1 (% UTC)” value is given as 89 % UTC. With “1198932 (kT*kT*dA*dG*dG*dA*dT*dG*d[5mC]*dA*dT*kG*dG*kT*dT*kT; antisense) [Compound 1198932]”, the “YAP1 (% UTC)” value came out at 35 % UTC. On the same count and under the same terms, the figure for “1198915 (k[5mC]*kT*dT*dT*dT*dA*d[5mC]*dA*dT*dT*dA*kG*dG*kA*dA*k[5mC]; antisense) [Compound 1198915]” is 37 % UTC.

The series is the same for the next values; noted with them: Table 46; Yap1 mRNA as percent of untreated control, SNU-449 cells, single dose.
On to “1198819 (kA*kT*dA*dT*dT*dA*dG*dA*dG*dT*dA*kT*eG*kT*eG*kG; antisense) [Compound 1198819]”, for which the “YAP1 (% UT)” value is given as 44 % UT. The same measure, in the same setting: the figure for “1198869 (kA*kT*dG*dT*dA*dA*dT*dA*dT*dT*dG*k[5mC]*eA*kA*eT*k[5mC]; antisense) [Compound 1198869]” is 49 % UT; for “1198884 (kT*kA*dA*dG*dT*dA*dA*dG*dG*dT*dT*kT*e[5mC]*k[5mC]*e[5mC]*kA; antisense) [Compound 1198884]” it is 28 % UT.

The same series, now with this note: Table 48; Yap1 mRNA level relative to untreated control; modified oligonucleotides targeting SEQ ID NO.: 1 and 2.
Consider “1198287 (kA*kA*kA*dT*dT*dG*dT*d[5mC]*dT*d[5mC]*dA*dT*kG*e[5mC]*k[5mC]*eT; antisense) [Compound 1198287]”, for which the “YAP1 (% UT)” value is 13 % UT.

Still in this series, the particulars now being: Table 49; Yap1 mRNA level relative to untreated control; modified oligonucleotides targeting SEQ ID NO.: 1 and 2.
“1198542 (antisense kT*kG*kT*d[5mC]*dT*d[5mC]*dA*dT*dG*d[5mC]*d[5mC]*dT*kT*kA*kT*eA) [Compound 1198542]”: the “YAP1 (% UT)” value stood at 23 % UT. For “1198570 (antisense kG*k[5mC]*kA*d[5mC]*dT*dT*dT*dT*dA*d[5mC]*dA*dT*kT*kA*kG*eG) [Compound 1198570]”, the “YAP1 (% UT)” value came to 15 % UT.

For “1198552 (antisense kA*kG*kA*dG*dT*dA*dT*dG*dT*dG*dG*d[5mC]*kA*kA*kT*eA) [Compound 1198552]”, the “YAP1 (% UT)” value is 17 % UT. With “1198303 (kG*kG*kT*dA*dT*dA*dA*d[5mC]*dT*dG*dG*dG*k[5mC]*eA*kA*eA; antisense) [Compound 1198303]”, the “YAP1 (% UT)” value amounted to 27 % UT. For the substance “1198362 (kA*kG*kT*dA*dA*dG*dG*dT*dT*dT*d[5mC]*d[5mC]*k[5mC]*eA*kG*eA; antisense) [Compound 1198362]”, the “YAP1 (% UT)” value was determined as 24 % UT.

The series is the same for the next values; noted with them: Table 50; Yap1 mRNA remaining as percent of untreated control (UT), SNU-449 cells, single dose.
Take “1198609 (antisense kT*kT*kT*dA*dT*dG*dT*dA*dA*dT*dA*dT*kT*kG*k[5mC]*eA) [Compound 1198609]”: the “YAP1 (% UT)” value is 52 % UT. The same measure, in the same setting: the figure for “1198624 (kA*k[5mC]*kT*dA*dA*dG*dT*dA*dA*dG*dG*dT*kT*kT*k[5mC]*e[5mC]; antisense) [Compound 1198624]” is 20 % UT.

Staying with this series, now noted: Table 51; Yap1 mRNA remaining as percent of untreated control (UT), SNU-449 cells, single dose.
Turning to “1197274 (kA*kG*kT*dA*mA*dG*dG*dT*dT*dT*d[5mC]*d[5mC]*d[5mC]*kA*kG*kA) [Compound 1197274]”, the “YAP1 (% UT)” value is 31 % UT.

As for “1200798 (kT*kA*kT*dT*dA*mG*dA*dG*dT*dA*dT*dG*dT*kG*kG*k[5mC]; antisense) [Compound 1200798]”, the “YAP1 (% UT)” value came out at 7 % UT.

The same series, now with this note: Table 52; Yap1 mRNA, modified oligonucleotides targeting SEQ ID NO: 1 and 2.
“1200861 (kT*kT*kA*dA*dA*mG*dT*dG*dT*dA*dT*dG*dT*k[5mC]*kA*kG; antisense) [Compound 1200861]”: the “YAP1 (% UT)” value is 10 % UT.

Staying with this series, now noted: Yap1 mRNA, percent of untreated control; modified oligonucleotides targeting SEQ ID NO: 1 and 2; Table 47.
Consider “1197193 (antisense AGGATGCATGGTTTTT; chemistry not fully specified) [Compound 1197193]”, for which the “YAP1 (% UT)” value is recorded as 15 % UT. “1197189 (antisense kT*kT*kT*dG*dG*dA*dA*dG*dA*dT*d[5mC]*dT*dG*kA*kA*kA) [Compound 1197189]”: the “YAP1 (% UT)” value was found to be 71 % UT.

As for “1198880 (kA*kA*d[5mC]*dT*dT*dT*dA*dA*dA*dG*dT*kG*eT*kA*eT*kG; antisense) [Compound 1198880]”, the “YAP1 (% UT)” value stood at 98 % UT.

Take “1197223 (antisense kT*kA*kA*dG*dT*dA*dA*dG*dG*dT*dT*dT*d[5mC]*k[5mC]*k[5mC]*kA) [Compound 1197223]”: the “YAP1 (% UT)” value amounted to 11 % UT.

With “1097037 (antisense kA*kG*kA*dT*dT*dT*dA*dG*dG*dA*dT*dG*d[5mC]*kA*kT*kG) [Compound 1097037]”, the “YAP1 (% UT)” value is recorded as 38 % UT.
